# Measured values from US20090176742A1, “METHODS RELATING TO THE TREATMENT OF FIBROTIC DISORDERS” (UNIVERSITY OF WASHINGTON, priority 2005, published 2009).
# How the values were obtained:
# [1] = system: TCF/β-catenin transcription; experiment: Bat-Gal transgenic mice given intratracheal bleomycin; lung sections stained with X-Gal (reporter for TCF/β-catenin transcription); assay type: in vivo; settings: ICG-001 5 mg/Kg/day via minipump (subcutaneously)
# Procedure: FIG. 14. FIG. 14A-C depicts lung sections taken from Bat-Gal transgenic mice given intratracheal saline or bleomycin and either treated with ICG-001 (5 mgs/Kg/day subcutaneously) or saline as vehicle control. The lungs were sectioned and stained with X-Gal (blue color.) FIG. 14A, intratracheal bleo+saline; FIG. 14B, intracheal bleo+ICG-001; FIG. 14C, saline+saline.
# Using this murine model of pulmonary fibrosis in transgenic Bat-Gal mice, ICG-001 5 mg/Kg/day, administered via minipump) blocked >95% of bleomycin-induced TCF/β-catenin transcription.
# These mice have a Beta-Galactosidase transgene driven by a TCF/Catenin driven promoter (i.e. a read out for activated Wnt/catenin signaling). The mice were given intratracheal saline or bleomycin and either treated with ICG-001 (5 mgs/Kg/day subcutaneously) or saline as vehicle control. The mice were sacrificed and the lungs sectioned and stained with X-Gal (blue color) A) intratracheal bleo+saline. B) intracheal bleo+ICG-001 C) saline+saline.
# The dose was selected because ICG-001 reduces TCF/β-Catenin driven β-Galactosidase expression >95% at 5 mgs/Kg/day.
# [2] = system: C57/B16 mice treated with intratracheal bleomycin; experiment: Murine model of bleomycin induced pulmonary fibrosis; lung sections stained with trichrome for collagen, plus body weight and survival; assay type: in vivo
# Text: FIG. 15. FIG. 15 depicts lung sections taken from C57/B16 mice treated with intratracheal bleomycin (lower left) or saline (upper left) for 5 days and stained with trichrome ([…]) to stain collagen.
# Murine models of bleomycin induced fibrosis have been developed in order to study […] disease progression.
# There is an absence of airway epithelium in lower left compared to upper left (see arrow heads) and extensive collagen deposition (lower left). […] Of interest is the upper right (saline treatment) showing lack of normal airway epithelialization, extensive collagen deposition and intra-airway hypercellularity (fibroblasts and inflammatory influx).
# The procedures were performed using the animal model as described in Example 2 (FIG. 15), and the sectioned lungs were stained for collagen.
# S100A4 = experiment: RT-PCR for S100A4 in bleomycin treated mice; assay type: in vivo; settings: ICG-001 5 mgs/Kg/day s.c.
# Text: (§1) FIGS. 16 and 17 show RT-PCR data for S100A4 (FIG. 16) and collagen1A2 (FIG. 17), which are increased in the bleomycin treated mice (treated with saline control).
# collagen1A2 = experiment: RT-PCR for collagen1A2 in bleomycin treated mice; assay type: in vivo; settings: ICG-001 5 mgs/Kg/day s.c.
# Text: as §1
# [3] = system: S100A4 (FSP-1, fibroblast specific protein-1); experiment: Western blot for S100A4 on whole cell lysates of cultured IPF fibroblasts; assay type: cell-based, human
# Procedure: (§2) FIG. 20. FIG. 20 depicts a Western blots for S100A4 (also know as FSP-1 or fibroblast specific protein-1) and E-Cadherin performed on whole cell lysates of IPF patient fibroblasts cultured in RPMI1640+10% FBS for 2 days and treated with ICG-001.
# (§3) Western blots for S100A4 (also know as FSP-1 or fibroblast specific protein-1) and E-Cadherin were performed on whole cell lysates (FIG. 20).
# E-Cadherin = experiment: Western blot for E-Cadherin on whole cell lysates of cultured IPF patient fibroblasts; assay type: cell-based, human
# Procedure: as §2, §3
# Aquaporin 5 = Aquaporin 5 immunostaining of lung tissue in the bleomycin mouse model; assay type: in vivo, mice; settings: bleomycin and ICG-001 versus bleomycin alone
# Text: FIG. 22. […] Bleomycin alone, FIG. 22A; bleomycin and ICG-001, FIG. 22B; saline FIG. 22C.
# The aquaporins are water channels expressed in a variety of cell types. Aquaporin 5 is involved in the transportation of water across the apical surface of the alveolar epithelium and the epithelia of the submucosal glands in the upper airway and nasopharynx. (Krane, C. M., P.N.A.S. 98:14192-4, 2001; Yang, F. J. Biol. Chem. 278:32173-80, 2003). Because aquaporin 5 is a marker of Type 1 (differentiated) lung epithelium, its expression was assayed in lung tissue created with bleomycin (FIG. 22A), bleomycin and ICG-001 (FIG. 22B), and saline (FIG. 22C), using the animal model as described in Example 2 (FIG. 15), and immunostaining with an antibody specific for Aquaporin 5.
# [4] = bleomycin and ICG-001 versus bleomycin
# [5] = bleomycin for 5 days, then ICG-001 5 mgs/Kg/day for 10 days from the sixth day
# [6] = IPF patient fibroblasts cultured for 2 days
smiles,measurement,setting,value
O=C1[C@H](Cc2ccc(O)cc2)N2C(=O)CCN(C(=O)NCc3ccccc3)[C@H]2CN1Cc1cccc2ccccc12 [ICG-001],bleomycin-induced TCF/β-catenin transcription (TCF/β-Catenin driven β-Galactosidase expression) blocked/reduced,[1],> 95%
same,alveolar fibrosis (lung sections stained for collagen),[2]; [4],prevented
same,interstitial fibrosis (lung sections stained for collagen),[2]; [4],prevented
same,body weight,"[2]; bleomycin for 5 days, then ICG-001 5 mgs/Kg/day for 10 days",regained normal body weight
same,airway appearance in trichrome-stained lung sections,[2]; [5],the airway looks essentially normal
same,collagen levels (trichrome stain),[2]; [5],normal collagen levels
same,survival,"[2]; bleomycin for 5 days, then ICG-001 5 mgs/Kg/day for 10 days, untreated controls did not survive",survived
same,fibrosis over the 25 days of treatment,"[2]; bleomycin mouse model, 25 days of treatment",reversed fibrosis
same,"disease progression, as judged by reduced mortality, histopathology and endogenous gene expression","[2]; bleomycin murine model, 5 mg/Kg/day",not only halted but reversed disease progression
same,S100A4 message (RT-PCR),S100A4,reduced essentially to negative control
same,collagen1A2 message (RT-PCR),collagen1A2,reduced essentially to negative control
same,S100A4 expression (whole cell lysates),[3]; ATCC IPF cells cultured in RPMI1640+10% FBS for 2 days,decreased
same,S100A4 expression at the mRNA level,[3]; IPF patient fibroblasts,also true at the mRNA level
same,"S100A4 expression (Western blot, whole cell lysates)",[3]; [6],decreased
same,E-cadherin expression at the mRNA level,E-Cadherin; IPF patient fibroblasts,also true at the mRNA level
same,"E-cadherin expression (Western blot, whole cell lysates)",E-Cadherin; [6],increased
same,"aquaporin 5 expression (immunostaining, marker of Type 1 lung epithelium)",Aquaporin 5,greatly increased
